Data taken from publication PMC11637438, “Chickpea NCR13 disulfide cross-linking variants exhibit profound differences in antifungal activity and modes of action” (PLOS Pathogens, 2024).
Bridge positions count the residues as written; N and C are the ends. Peptide text beside a SMILES is read from it.

Tests used:
B. cinerea [1] = assay type: cell-based, Botrytis cinerea; details: B. cinerea; for Minimal Inhibitory Concentration (MIC): resazurin assay in SFM, ~10^5 spores/mL, resazurin added after 48 h, three biological replicates
Method: (§1) B. cinerea strain T4 was cultured in V8 medium for 3 weeks at 25°C. Fungal spores were collected by flooding the fungal growth plates with water and scraped using a sterile spreader. The spore suspension was filtered through two layers of Miracloth, followed by centrifugation at 12,000 g for 2 minutes (min) and subsequently washed twice with sterile water. Lastly, fungal spores were resuspended in Synthetic Fungal Media (SFM). The spore suspension was adjusted to the desired spore density of about 10^5 spores/mL using a hemocytometer. Fusarium virguliforme (F. virguliforme) was grown and maintained regularly in potato dextrose agar (PDA) (Difco Laboratories) medium. Two weeks old F. virguliforme plates were used to collect spores as described above for B. cinerea followed by centrifugation and washing steps. Spores were counted using a hemocytometer and adjusted to the final concentration of 10^5 spores/mL in 2X SFM media. Sclerotinia sclerotiorum obtained from the field of pennycress in Illinois was grown on PDA medium at room temperature.
The antifungal activity of NCR13 against fungal pathogens was determined using the resazurin cell viability assay, as described previously. Briefly, 45 μL of each peptide dilution (0, 0.09, 0.1875, 0.375, 0.75, 1.5, 3, and 6 μM) was added to each well of the microtiter plate containing 45 μL (~10^5 spores/mL) of spore suspension. Three biological replicates were used for each treatment and the experiments were repeated three times. Resazurin at 0.1% (w/v) was added to each well after incubation for 48 h. Images were taken at ~24 h. The Minimum Inhibitory Concentration (MIC) for each peptide denotes the lowest concentration at which the peptide halts the growth of fungus evident through a lack of color change from blue to […]. The in vitro antifungal activity of NCR13_PFVs against S. sclerotiorum was determined using a 24-well plate assay as previously described. Mycelial plugs (1 mm in diameter) cut from the growing edge of the two day-old actively growing colony were transferred from PDA media to a series of wells containing 250 μL of SFM.

Fusarium virguliforme = test: In vitro antifungal assay, resazurin cell viability (MIC); assay type: cell-based; details: resazurin assay in SFM, ~10^5 spores/mL
Method: as §1
(§2) The antifungal activity of NCR13 against fungal pathogens was determined using the resazurin cell viability assay, as described previously. […] The in vitro antifungal activity of NCR13_PFVs against S. sclerotiorum was determined using a 24-well plate assay as previously described. […]

Sclerotinia sclerotiorum = test: In vitro antifungal assay, 24-well plate with mycelial plugs (MIC); assay type: cell-based; details: mycelial plugs in 250 μL SFM
Method: as §1, §2

B. cinerea [2] = assay type: in vivo, Botrytis cinerea on tomato (Solanum lycopersicum); details: 3 μM peptide sprayed on pre-inoculated four-week-old tomato plants; 5 leaves per plant, 4 plants
Method: To test the curative antifungal activity of peptides against B. cinerea, 4-week-old pepper and tomato plants were used. Plants were first sprayed with 1 mL of B. cinerea spores (about 5 × 10^4) suspended in SFM. After 8 h of B. cinerea challenge, 2 mL of NCR13_PFV1 or NCR13_PFV2 (3.0 and 1.5 μM) were sprayed per plant. Control plants were sprayed with 2 mL of water. All plants were placed in a high humid environment for 72 h. Plants were imaged at 72 h after infection in white light and high-resolution fluorescence images were taken using CropReporter (PhenoVation). The quantification of plant health was carried out using the calculated Fv/Fm (maximum quantum yield of photosystem II) images of CropReporter showing the efficiency of photosynthesis in false colors.
For the curative assay using pepper and tomato plants, pictures of whole plants and detached leaves were taken as described above. […] Four plants were used per treatment and for each plant the disease was assessed per leaf. Besides disease severity (DS), the inhibition of disease by treatment was also evaluated. […]

trypsin = details: 20-fold less (in mass) trypsin, room temperature, 1 h, read-out mass spectrometry

CC[C@H](C)[C@@H]1NC(=O)[C@@H]2CSSC[C@H](NC(=O)[C@@H]3CCCN3C(=O)[C@H](CCCCN)NC(=O)[C@@H](NC(=O)[C@H](C)N)[C@@H](C)O)C(=O)N[C@@H](CCC(N)=O)C(=O)N[C@@H](CO)C(=O)N[C@@H](CC(=O)O)C(=O)N[C@@H](CCCCN)C(=O)N[C@@H](CC(=O)O)C(=O)N[C@H]3CSSC[C@H](NC(=O)[C@H](Cc4ccccc4)NC(=O)CNC(=O)[C@H](CC(N)=O)NC1=O)C(=O)N[C@@H](CCCCN)C(=O)N[C@H](C(=O)N[C@H](C(=O)N[C@@H](CCCNC(=N)N)C(=O)O)C(C)C)CSSC[C@H](NC(=O)[C@H](C)NC(=O)[C@H](Cc1ccccc1)NC(=O)[C@H](CCCCN)NC(=O)[C@H](CCCCN)NC3=O)C(=O)N[C@@H](CCCNC(=N)N)C(=O)N[C@@H](CCCCN)C(=O)N1CCC[C@H]1C(=O)N[C@@H](CCCCN)C(=O)N[C@@H](C(C)C)C(=O)N1CCC[C@H]1C(=O)N[C@@H](CCCCN)C(=O)N2 [NCR13_PFV1] (H-ATKPCQSDKDCKKFACRKPKVPKCINGFCKCVR-OH; disulfide 5-24, 11-29, 16-31)
Minimal Inhibitory Concentration (MIC) (B. cinerea [1]): 0.09 µM
MIC in SFM+100 mM NaCl (B. cinerea [1]; synthetic fungal medium plus 100 mM NaCl): > 12 µM
Minimal Inhibitory Concentration (MIC) (Fusarium virguliforme): 0.09 µM
Minimal Inhibitory Concentration (MIC) (Sclerotinia sclerotiorum): 6.0 µM
inhibition of gray mold disease, tomato (B. cinerea [2]): 90%
digestion by trypsin (trypsin): could not be digested by trypsin

CC[C@H](C)[C@@H]1NC(=O)[C@@H]2CSSC[C@H](NC(=O)[C@H](Cc3ccccc3)NC(=O)CNC(=O)[C@H](CC(N)=O)NC1=O)C(=O)N[C@@H](CCCCN)C(=O)N[C@H](C(=O)N[C@H](C(=O)N[C@@H](CCCNC(=N)N)C(=O)O)C(C)C)CSSC[C@H](NC(=O)[C@H](C)NC(=O)[C@H](Cc1ccccc1)NC(=O)[C@H](CCCCN)NC(=O)[C@H](CCCCN)NC(=O)[C@@H]1CSSC[C@H](NC(=O)[C@@H]3CCCN3C(=O)[C@H](CCCCN)NC(=O)[C@@H](NC(=O)[C@H](C)N)[C@@H](C)O)C(=O)N[C@@H](CCC(N)=O)C(=O)N[C@@H](CO)C(=O)N[C@@H](CC(=O)O)C(=O)N[C@@H](CCCCN)C(=O)N[C@@H](CC(=O)O)C(=O)N1)C(=O)N[C@@H](CCCNC(=N)N)C(=O)N[C@@H](CCCCN)C(=O)N1CCC[C@H]1C(=O)N[C@@H](CCCCN)C(=O)N[C@@H](C(C)C)C(=O)N1CCC[C@H]1C(=O)N[C@@H](CCCCN)C(=O)N2 [NCR13_PFV2] (H-ATKPCQSDKDCKKFACRKPKVPKCINGFCKCVR-OH; disulfide 5-11, 16-31, 24-29)
Minimal Inhibitory Concentration (MIC) (B. cinerea [1]): 1.5 µM
Minimal Inhibitory Concentration (MIC) (Fusarium virguliforme): 1.5 µM
Minimal Inhibitory Concentration (MIC) (Sclerotinia sclerotiorum): 24 µM
inhibition of gray mold disease, tomato (B. cinerea [2]): 40%
